In ChEMBL document CHEMBL1201862, “PubChem BioAssay data set” (2004):
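Five concentrations, 48 hours, 96-well plates. At the GI50, growth is halved.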 Active and inactive are the calls of the source. Cut-off read from the data, not from the text of the source: active = GI50 up to about 1.1 µM and inactive = higher.

Tests used:
Experiment in all cases: DTP human tumour cell line panel, 48 h
KM-20L2 = system: KM-20L2
SNB-75 = system: SNB-75
HOP-92 = system: HOP-92
SNB-78 = system: SNB-78
TK-10 = system: TK-10
786-0 = system: 786-0
A498 = system: A498
Malme-3M = system: Malme-3M
M19-MEL = system: M19-MEL
SR = system: SR
ACHN = system: ACHN
XF498 = system: XF498
NCI/ADR-RES = system: NCI/ADR-RES
MCF7 = system: MCF7
T47D = system: T47D
DU-145 = system: DU-145
MDA-MB-435 = system: MDA-MB-435
MDA-N = system: MDA-N
MDA-MB-231 = system: MDA-MB-231
PC-3 = system: PC-3

| Structure (SMILES) | GI50 (KM-20L2) | GI50 (SNB-75) | GI50 (HOP-92) | GI50 (SNB-78) | GI50 (TK-10) | GI50 (786-0) | GI50 (A498) | GI50 (Malme-3M) | GI50 (M19-MEL) | GI50 (SR) | GI50 (ACHN) | GI50 (XF498) | GI50 (NCI/ADR-RES) | GI50 (MCF7) | GI50 (T47D) | GI50 (DU-145) | GI50 (MDA-MB-435) | GI50 (MDA-N) | GI50 (MDA-MB-231) | GI50 (PC-3) |
| --- | --- | --- | --- | --- | --- | --- | --- | --- | --- | --- | --- | --- | --- | --- | --- | --- | --- | --- | --- | --- |
| O=C(O)c1ccccc1C(=O)c1ccco1 | > 100 µM (inactive) | > 100 µM (inactive) | > 100 µM (inactive) | > 100 µM (inactive) | > 100 µM (inactive) | > 100 µM (inactive) | > 100 µM (inactive) | > 100 µM (inactive) | > 100 µM (inactive) | > 100 µM (inactive) | > 100 µM (inactive) | > 100 µM (inactive) | – | – | – | – | – | – | – | – |
| Cc1c(N=NN(C)C)cc[n+]([O-])c1C | > 100 µM (inactive) | > 49.7 µM (inactive) | > 100 µM (inactive) | > 100 µM (inactive) | – | – | > 100 µM (inactive) | > 100 µM (inactive) | > 100 µM (inactive) | – | – | > 100 µM (inactive) | > 100 µM (inactive) | > 100 µM (inactive) | – | – | – | – | – | – |
| C=C/C(C)=C/[C@H](C)C(=O)C[C@H](O)CC1CC(=O)NC(=O)C1 | 19.2 µM (inactive) | > 55.8 µM (inactive) | 21.7 µM (inactive) | 27.4 µM (inactive) | – | – | 30.9 µM (inactive) | 16 µM (inactive) | 80.4 µM (inactive) | – | – | 2.86 µM (inactive) | 57.4 µM (inactive) | 27.5 µM (inactive) | – | – | – | – | – | – |
| O=c1cnn(C2OC(CO)C(O)C2O)c(=S)[nH]1 (stereo not given) | 28.9 µM (inactive) | > 100 µM (inactive) | > 100 µM (inactive) | > 91.2 µM (inactive) | > 100 µM (inactive) | – | > 100 µM (inactive) | > 77.8 µM (inactive) | 43.1 µM (inactive) | 1.02 µM (active) | – | > 100 µM (inactive) | > 79.3 µM (inactive) | 10.6 µM (inactive) | > 100 µM (inactive) | 9.4 µM (inactive) | > 100 µM (inactive) | > 100 µM (inactive) | > 100 µM (inactive) | 8.73 µM (inactive) |
| C#CC[C@@]12CC(=O)C[C@@H]1CCC1(C2)OCCO1.C#CC[C@]12CC(=O)CC[C@H]1CC(=O)C2 | > 100 µM (inactive) | 97.7 µM (inactive) | > 100 µM (inactive) | > 100 µM (inactive) | – | – | > 100 µM (inactive) | > 100 µM (inactive) | > 100 µM (inactive) | – | – | > 100 µM (inactive) | > 100 µM (inactive) | > 100 µM (inactive) | – | – | – | – | – | – |
| N/C(=N\O)N/N=C\c1cc([N+](=O)[O-])cc([N+](=O)[O-])c1O | 24.9 µM (inactive) | – | > 100 µM (inactive) | > 100 µM (inactive) | – | – | > 23.2 µM (inactive) | > 100 µM (inactive) | 40.6 µM (inactive) | – | – | 40.8 µM (inactive) | > 26 µM (inactive) | 19.1 µM (inactive) | – | – | – | – | – | – |
| C/C([O-])=C(/c1nc(-c2ccc([N+](=O)[O-])o2)no1)[n+]1cc(C)ccc1C | 12.6 µM (inactive) | 17.8 µM (inactive) | > 100 µM (inactive) | 20.7 µM (inactive) | – | – | 18.3 µM (inactive) | 14.3 µM (inactive) | 5.19 µM (inactive) | – | – | 7.48 µM (inactive) | 35 µM (inactive) | 4.02 µM (inactive) | – | – | – | – | – | – |
| CSc1nc2c(ncn2C2OCC(O)C(O)C2O)c(=O)n1C (stereo not given) | > 100 µM (inactive) | 73.6 µM (inactive) | > 100 µM (inactive) | > 100 µM (inactive) | – | – | > 100 µM (inactive) | > 100 µM (inactive) | > 100 µM (inactive) | – | – | > 100 µM (inactive) | > 100 µM (inactive) | > 100 µM (inactive) | – | – | – | – | – | – |
| CCOC(=O)c1ccc(N[C@@H]2c3cc4c(cc3C(c3cc(OC)c(O)c(OC)c3)[C@H]3C(=O)OCC32)OCO4)cc1 (stereo not given in full) | 0.713 µM (active) | 1.21 µM (inactive) | 1.1 µM (active) | 4.1 µM (inactive) | – | – | 0.244 µM (active) | 0.568 µM (active) | 1.75 µM (inactive) | 0.0474 µM (active) | 0.131 µM (active) | 0.726 µM (active) | 1.42 µM (inactive) | 0.105 µM (active) | – | 0.258 µM (active) | 3.07 µM (inactive) | – | 1.67 µM (inactive) | 1.61 µM (inactive) |
| COc1cc(C2c3cc4c(cc3[C@@H](Nc3cccc(C(C)=O)c3)C3COC(=O)[C@H]23)OCO4)cc(OC)c1O (stereo not given in full) | 1.66 µM (inactive) | 0.838 µM (active) | 0.478 µM (active) | 2.75 µM (inactive) | – | – | 0.236 µM (active) | 1.28 µM (inactive) | 0.897 µM (active) | – | – | 0.573 µM (active) | 0.383 µM (active) | 0.0785 µM (active) | – | – | – | – | – | – |
| CN(C(=O)c1ccc(OCCCC(=O)O)c(Cl)c1Cl)C1CCCC1 | > 100 µM (inactive) | 80.4 µM (inactive) | 45.3 µM (inactive) | > 100 µM (inactive) | – | – | > 89.5 µM (inactive) | > 100 µM (inactive) | > 100 µM (inactive) | – | – | 28.4 µM (inactive) | > 100 µM (inactive) | > 100 µM (inactive) | – | – | – | – | – | – |
| COc1ccc2cc1Oc1ccc(cc1)C[C@H]1c3cc(c(OC)cc3CCN1C)Oc1c(O)c(OC)cc3c1[C@H](C2)N(C)CC3 [FANGCHINOLINE] | 1.7 µM (inactive) | 28.7 µM (inactive) | 7.64 µM (inactive) | 40.7 µM (inactive) | – | – | 18 µM (inactive) | 30.7 µM (inactive) | 22.6 µM (inactive) | – | – | 27.4 µM (inactive) | 29.4 µM (inactive) | 26.6 µM (inactive) | – | – | – | – | – | – |
